Reference: US20260083742A1, “HOMOLOGOUS RECOMBINATION REPAIR DEFICIENCY (HRD) AS A PREDICTIVE BIOMARKER FOR TREATING CANCER WITH WEE1 INHIBITORS” (Zeno Management, Inc., priority 2023, published 2026)
Read-outs that look alike come from different tables or passages of the source. Blank lines part the entries; values can stand above or below the compound they belong to.

Assays:
[1] = system: 22RV1 (prostate cancer cell line) subcutaneous xenografts; test: 22RV1 subcutaneous xenograft tumor growth inhibition; type: in vivo, CB17 SCID mice
Method: The prostate cancer cell line 22RV1 harbors a BRCA2 pathogenic mutation (HRD+). Briefly, 72 tumor-bearing mice were randomized and assigned into nine groups using a randomized block design based on their tumor volumes with eight mice per group. Each mouse was inoculated subcutaneously at the right flank with 22RV1 tumor cells in 0.2 mL mixture of Matrigel (5×10^6 cells/mouse). Treatments were started when the tumor size reached 199.94 mm^3 for tumor efficacy studies (Day 14 post inoculation). [table] Tumor size was measured twice weekly in two dimensions using caliper and expressed in mm3 using the formula: where a and b were long and short diameters of the tumor. The tumor size was used for calculations of T/C %. The T/C(%) was calculated according to the following formula: Two-way ANOVA followed by Bonferroni post-test was performed to compare tumor volumes among vehicle and other groups.

[2] = system: parental MDA-MB-436 TNBC cell line; test: In vitro activity (IC50) in parental MDA-MB-436; type: cell-based
Method: (§1) Cells with BRCA reversion mutations may be considered HRD+due to genome instability (such as TAI, LST, LOH). BRCA reversion mutation is an established mechanism of resistance to both platinum-based chemotherapeutic drugs and PARP inhibitors. In vivo exploration of WEE1 inhibitors (azenosertib, adavosertib) and PARP inhibitors (niraparib, olaparib) was evaluated.
(§2) MDA-MB-436 PARP inhibitor-resistant lines were generated by long-term in vitro treatment with a PARP inhibitor that is olaparib (Ola^R) or niraparib (Nir^R).

[3] = system: MDA-MB-436 Ola^R (BRCA reversion) TNBC cell line; test: In vitro activity (IC50) in olaparib-resistant MDA-MB-436; type: cell-based
Method: as §1, §2

[4] = system: MDA-MB-436 Nir^R (BRCA reversion) TNBC cell line; test: In vitro activity (IC50) in niraparib-resistant MDA-MB-436; type: cell-based
Method: as §1, §2

[5] = system: HCC1937 PARP inhibitor-resistant TNBC xenograft; test: HCC1937 TNBC xenograft tumor growth inhibition; type: in vivo, mice; settings: olaparib 100 mg/kg QD
Method: Anti-tumor activity of azenosertib monotherapy or in combination with olaparib was evaluated in the HCC1937 model in vivo in mice (FIG. 9), and Table 11 summarizes the groups and treatments. […] Treatment with monotherapy olaparib at 100 mg/kg QD confirmed HCC1937 resistance to the PARP inhibitor.

[6] = system: SUM149PT TNBC xenograft (BRCA1 splice isoform Δ11q); test: SUM149PT TNBC xenograft tumor growth inhibition; type: in vivo, mice
Method: SUM149PT is a TNBC xenograft model harboring a BRCA1 splice isoform (Δ11q) that produces a truncated, partially functional protein which thereby promotes PARP inhibitor resistance. Azenosertib monotherapy and its combination with olaparib or AZD5305 was evaluated in the SUM149PT model in vivo in mice (FIGS. 10A-10B), and Table 12 summarizes the groups and treatments. Single agent treatment with olaparib at 100 mg/kg QD (FIG. 10A) or with the PARP1 selective inhibitor, AZD5305, at 0.1 or 1 mg/kg QD (FIG. 10B) confirmed SUM149PT resistance to PARP inhibitors.

[7] = Body weight loss and clinical observations in TNBC PDX study; settings: azenosertib 60 mg/kg and/or niraparib 35 mg/kg p.o., (5 days on, 2 days off) × 4
Method: Animals were treated with 60 mg/kg azenosertib or 35 mg/kg niraparib alone or in combination on an intermittent dosing regimen of once a day for 5 days followed by 2 days off (qd x5, 2 days off) for 4 cycles (28 days).
Relative body weight (RBW) is calculated for each measurement by dividing the body weight by the body weight at the start of treatment. Individual body weight loss percent is given by the formula: […]
where BWx is the BW at any day during the treatment and BW0 is the BW on the day of inclusion.
Mean body weight loss percent is given by the formula: […]
where BWx is the mean BW at any day during the treatment and BW0 is the mean BW on the day of inclusion.
Mean relative body weight (RBW) curves were obtained by plotting the mean RBW against time for each experimental group. Delta relative body weights (relative body weights of treated group compared to relative body weights of control group) were used for statistical analysis.

[8] = Body weight loss and clinical observations in ovarian PDX study; type: in vivo
Method: Relative Body Weight (RBW), individual body weight and mean body weight loss percent were calculated for each measurement by dividing the body weight by the body weight at the start of treatment as described in Example 3.

[9] = olaparib 50 mg/kg p.o. qd × 5 3 cycle
[10] = Homo sapiens, parental MDA-MB-436, read-out: In vitro activity (IC50) Wild Type
[11] = Homo sapiens, MDA-MB-436 Ola^R, read-out: In vitro activity (IC50) Olaparib^R (BRCA reversion)
[12] = niraparib 30 mg/kg p.o. qd × 5 3 cycle
[13] = azenosertib 60 mg/kg and/or niraparib 35 mg/kg p.o., (5 days on, 2 days off) × 4
[14] = parental MDA-MB-436, read-out: In vitro activity (IC50) Wild Type
[15] = MDA-MB-436 Ola^R, read-out: In vitro activity (IC50) Olaparib^R (BRCA reversion)

Compound: CN(C)CCCOc1ccc(-c2ccc3ncc4c(c3c2)n(C2CCOCC2)c(=O)n4C)cn1 [AZD0156]
IC50 [2, 14]: 4.98 µM | IC50 [3, 15]: 1.99 µM | IC50 [4]: 2.08 µM

Compound: Cn1cc(-c2cnn3c(N)c(Br)c([C@@H]4CCCNC4)nc23)cn1 [MK8776]
IC50 ([2]; Homo sapiens, MDA-MB-436, read-out: In vitro activity (IC50) Wild Type): > 10 µM | IC50 ([3]; Homo sapiens, MDA-MB-436, read-out: In vitro activity (IC50) Olaparib^R (BRCA reversion)): 5.97 µM

Compound: CCc1cc2ncc(CN3CCN(c4ccc(C(=O)NC)nc4)CC3)cc2[nH]c1=O [AZD5305, saruparib]
anti-tumor activity of single agent ([6]; AZD5305 0.1 or 1 mg/kg QD): resistance

Compound: C[C@@H]1COCCN1c1cc(C2([S@](C)(=N)=O)CC2)nc(-c2cc[nH]c3nccc2-3)n1 [AZD6738]
IC50 [2, 14]: 3.67 µM | IC50 [3, 15]: 1.84 µM | IC50 [4]: 1.77 µM

Further lines, with some results ahead:

IC50 [3, 11]: > 10 µM | IC50 ([4]; Homo sapiens): > 10 µM
Compound: O=C(c1cc(Cc2n[nH]c(=O)c3ccccc23)ccc1F)N1CCN(C(=O)C2CC2)CC1 [Olaparib, olaparib]
% TGI Day 5 [1, 9]: 33.81% | % TGI Day 8 [1, 9]: 26.80% | % TGI Day 12 [1, 9]: 18.2% | % TGI Day 15 [1, 9]: 5.03% | % TGI Day 19 [1, 9]: 14.79% | IC50 [2, 10]: 0.095 µM | anti-tumor activity of monotherapy [5]: resistance | anti-tumor activity of single agent ([6]; olaparib 100 mg/kg QD): resistance

IC50 [3, 11]: 7.73 µM | IC50 ([4]; Homo sapiens): 8.65 µM
Compound: NC(=O)c1cccc2cn(-c3ccc([C@@H]4CCCNC4)cc3)nc12 [Niraparib, niraparib]
% TGI Day 5 [1, 12]: 31.64% | % TGI Day 8 [1, 12]: 18.17% | % TGI Day 12 [1, 12]: 21.99% | % TGI Day 15 [1, 12]: 4.28% | % TGI Day 19 [1, 12]: −1.28% | Max. individual BWL [7]: 6.2% | Max. mean BWL [7]: 3.4% | Max. individual BWL [8, 13]: 7.0% | Max. mean BWL [8, 13]: 1.5% | tolerability (body weight data and clinical observations) ([8]; azenosertib at 60 mg/kg, niraparib at 35 mg/kg, single agents or in combination): well tolerated | IC50 [2, 10]: 0.103 µM

IC50 [3, 15]: > 10 µM | IC50 [4]: > 10 µM
Compound: Cc1cc2ncnn2cc1Nc1ncc2c(n1)n(C1CCOCC1)c(=O)n2C [AZD7648]
IC50 [2, 14]: > 10 µM
